Where a name gives a salt, the structure may show the parent alone.
target: T1, Amine oxidase [flavin-containing] B (Homo sapiens, UniProt P27338); assay: MAO-A/B Activity and Inhibition Assay; settings: pH 7.5
T1 sequence (P27338 whole entry): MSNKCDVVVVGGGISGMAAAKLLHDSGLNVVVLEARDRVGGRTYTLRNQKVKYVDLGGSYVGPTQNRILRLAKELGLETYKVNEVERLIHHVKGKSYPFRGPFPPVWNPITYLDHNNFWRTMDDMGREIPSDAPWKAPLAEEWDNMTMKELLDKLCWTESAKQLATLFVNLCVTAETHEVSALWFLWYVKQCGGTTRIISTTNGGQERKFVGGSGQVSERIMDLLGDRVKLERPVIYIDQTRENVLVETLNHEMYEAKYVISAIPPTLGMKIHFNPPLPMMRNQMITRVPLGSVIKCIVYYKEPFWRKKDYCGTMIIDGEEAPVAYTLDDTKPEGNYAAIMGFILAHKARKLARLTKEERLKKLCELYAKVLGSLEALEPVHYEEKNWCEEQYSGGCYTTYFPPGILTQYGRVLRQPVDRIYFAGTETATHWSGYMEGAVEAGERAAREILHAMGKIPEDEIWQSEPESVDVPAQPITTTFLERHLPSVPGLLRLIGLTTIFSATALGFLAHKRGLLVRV
Method: (§1) The reaction mixtures contained 50 mM HEPES (pH 7.5), 0.1 mM 4-aminoantipyrine, 1 mM 3,5-dichloro-2-hydroxybenzenesulfonic acid, 0.04 mg/mL horseradish peroxidase, and appropriate concentration of buffered substrate (tyramine).

SMILES | Ki [nM]
NNCCc1ccc(NC(=O)CCCc2ccccc2)cc1 [N-[4-(2-Hydrazinylethyl)phenyl]-4-phenylbutanamide dihydrochloride salt (12d)] | 6500

target: T2, Amine oxidase [flavin-containing] A (Homo sapiens, UniProt P21397); assay: MAO-A/B Activity and Inhibition Assay; settings: pH 7.5
T2 sequence (P21397 whole entry): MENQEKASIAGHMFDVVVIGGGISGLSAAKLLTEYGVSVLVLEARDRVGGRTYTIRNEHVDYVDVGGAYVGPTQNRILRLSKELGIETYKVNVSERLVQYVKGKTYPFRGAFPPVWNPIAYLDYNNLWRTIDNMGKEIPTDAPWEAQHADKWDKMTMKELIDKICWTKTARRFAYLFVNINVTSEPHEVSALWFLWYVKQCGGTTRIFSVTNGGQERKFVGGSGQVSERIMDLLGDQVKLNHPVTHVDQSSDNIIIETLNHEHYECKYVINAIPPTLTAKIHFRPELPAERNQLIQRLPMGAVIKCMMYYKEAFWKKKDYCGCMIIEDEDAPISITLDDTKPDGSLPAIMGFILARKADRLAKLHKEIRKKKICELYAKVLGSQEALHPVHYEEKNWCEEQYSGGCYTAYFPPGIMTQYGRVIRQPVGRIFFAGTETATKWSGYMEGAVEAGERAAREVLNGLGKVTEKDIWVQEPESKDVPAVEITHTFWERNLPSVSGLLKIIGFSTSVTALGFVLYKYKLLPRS
Method: as §1

SMILES | Ki [nM]
NNCCc1ccc(NC(=O)CCCc2ccccc2)cc1 [N-[4-(2-Hydrazinylethyl)phenyl]-4-phenylbutanamide dihydrochloride salt (12d)] | 2600

target: Lysine-specific histone demethylase 1A (Homo sapiens, UniProt O60341); assay: GST-LSD1 Enzymatic Assays; settings: pH 7.5
Method: The reaction mixture contained 50 mM HEPES (pH 7.5), 0.1 mM 4-aminoantipyrine, 1 mM 3,5-dichloro-2-hydroxybenzenesulfonic acid, 0.04 mg/mL horseradish peroxidase, and appropriate concentration of buffered substrate (dimethyl-Lys-4- H3-21, ARTKme2[sequence]).

SMILES | Ki [nM]
NNCCc1ccc(NC(=O)CCCc2ccc([N+](=O)[O-])cc2)cc1 [N-[4-(2-Hydrazinylethyl)phenyl]-4-(4-nitrophenyl)butanamide sulfate salt (12i)] | 282
CS(=O)(=O)Oc1ccccc1CCC(=O)Nc1ccc(CCNN)cc1 [2-(3-{[4-(2-Hydrazinylethyl)phenyl]amino}-3-oxopropyl)phenyl methanesulfonate oxalate salt (12j)] | 204
NNCCc1ccc(NC(=O)CCCCc2ccccc2)cc1 [N-[4-(2-Hydrazinylethyl)phenyl]-5-phenylpentanamide oxalate salt (12e)] | 260
NNCCc1ccc(N(Cc2ccccc2)C(=O)CCCc2ccccc2)cc1 [N-Benzyl-N-[4-(2-hydrazinylethyl)phenyl]-4-phenylbutanamide oxalate salt (12m)] | 1600
COc1ccc(CCCNN)cc1 [[3-(4-Methoxyphenyl)propyl]hydrazine dihydrochloride salt (9e)] | 8000
NNCCCc1ccccc1 [(3-Phenylpropyl)hydrazine dihydrochloride salt (9c)] | 5000
NNCCc1ccc(NC(=O)CCCc2ccc(Cl)cc2)cc1 [4-(4-Chlorophenyl)-N-[4-(2-hydrazinylethyl)phenyl]butanamide sulfate salt (12f)] | 156
NNCCc1ccc(NC(=O)CCc2ccccc2)cc1 [N-[4-(2-Hydrazinylethyl)phenyl]-3-phenylpropanamide sulfate salt (12c)] | 260
CS(=O)(=O)Oc1cccc(CCC(=O)Nc2ccc(CCNN)cc2)c1 [3-(3-{[4-(2-Hydrazinylethyl)phenyl]amino}-3-oxopropyl)phenyl methanesulfonate oxalate salt (12k)] | 223
NNCCOc1ccccc1 [(2-Phenoxyethyl)hydrazine dihydrochloride salt (10a)] | 44000
NNCCc1ccc(NC(=O)c2ccccc2)cc1 [N-[4-(2-Hydrazinylethyl)phenyl]benzamide dihydrochloride salt (12a)] | 280
NNCCCCc1ccccc1 [(4-Phenylbutyl)hydrazine dihydrochloride salt (9h)] | 22000
NNCCCc1ccc(OCc2ccccc2)cc1 [{3-[4-(Benxyloxy)phenyl]propyl}hydrazine dihydrochloride salt (14)] | 900
NNCCc1ccc(NC(=O)Cc2ccccc2)cc1 [N-[4-(2-Hydrazinylethyl)phenyl]-2-phenylacetamide dihydrochloride salt (12b)] | 370
NNCCCOc1ccccc1 [(3-Phenoxypropyl)hydrazine dihydrochloride salt (10b)] | 12000
COc1ccc(CCCC(=O)Nc2ccc(CCNN)cc2)cc1 [N-[4-(2-Hydrazinylethyl)phenyl]-4-(4-methoxyphenyl)butanamide sulfate salt (12h)] | 207
NNCCc1ccc(NC(=O)/C=C/c2ccccc2)cc1 [(2E)-N-[4-(2-Hydrazinylethyl)phenyl]-3-phenylprop-2-enamide sulfate salt (13)] | 100
NNCCc1ccc(NC(=O)CCc2c[nH]c3ccccc23)cc1 [N-[4-(2-Hydrazinylethyl)phenyl]-3-(1H-indol-3-yl)propanamide sulfate salt (15a)] | 210
CN(C(=O)CCCc1ccccc1)c1ccc(CCNN)cc1 [N-[4-(2-Hydrazinylethyl)phenyl]-N-methyl-4-phenylbutanamide oxalate salt (12l)] | 2000
